In publication PMC9962600, “Structure-Function Studies of Sponge-Derived Compounds on the Cardiac CaV3.1 Channel” (International Journal of Molecular Sciences, 2023):
“And” between values parts separate entries of the source, which are not always exact repeats. Equal entries are not always repeated.

How the values were obtained:
rat CaV3.1 channel [1] = molecular target: T1, rat CaV3.1 channel (Rattus norvegicus, UniProt O54898); experiment: Two-electrode voltage clamp on Xenopus oocytes expressing CaV3.1; assay type: cell-based; conditions: for inhibition at 10 µM / Shift in the voltage dependency (activation/inactivation) of CaV3.1: 10 μM compound; for inhibition at 10 µM: 10 mM Ba2+, means ± SEM (n ≥ 3), read-out: Inhibition of CaV3.1 currents; for IC50: concentration-response 0.1-100 μM, means ± SEM; for Hill coefficient on CaV3.1: concentration-response fit; for Reversibility of effect on CaV3.1 on wash-out: wash-in and wash-out
Experimental: In previous work, a library of 119 simplified analogs was synthesized with the aim of targeting KV10.1 [18, 23, 24, 25]. Due to the interesting activity of purpurealidin I (1), we decided to repurpose this existing library to investigate the structure–activity relationship with respect to the CaV3.1 channels. All compounds were first dissolved in DMSO and then diluted in a 10 mM Ba^2+ solution. Compounds were tested at a final concentration of 10 μM.
(§1) Rat CaV3.1, human CaV3.2, rat CaV3.3, human NaV1.5, rat KV1.4, rat KV4.2, and human KV11.1 were expressed in X. laevis oocytes by linearizing the plasmids and subsequent in vitro transcription using a commercial T7 mMESSAGE mMACHINE transcription kit (Ambion, Carlsbad, CA, USA). Defolliculated Xenopus oocytes were injected with 50 nL of cRNA at a concentration of 1 ng/nL by using a microinjector (Drummond Scientific Company, Broomall, PA, USA). The oocytes were incubated in a solution containing (in mM): NaCl, 96; KCl, 2; CaCl2, 1.8; MgCl2, 2; and HEPES, 5 (pH 7.5). This solution was supplemented with 50 mg/L gentamicin sulfate and […] theophylline.
(§2) Two-electrode voltage clamp recordings were performed at room temperature (18–22 °C) by using a GeneClamp 500 amplifier (Molecular Devices, San Jose, CA, USA) controlled by a pClamp data acquisition system (Axon Instruments, Union City, CA, USA). Whole-cell currents from oocytes were recorded 5–10 days after mRNA injection. The bath solution composition was the following (in mM): BaCl2, 10; NaOH, 90; KOH, 1; EDTA, 0.1; and HEPES, 5 (pH 7.5). Voltage and current electrodes were filled with 3 M KCl. Resistances of both electrodes were kept between 0.8 and 1.5 MΩ. The elicited CaV3.1, CaV3.2, and CaV3.3 currents were filtered at 2 kHz and sampled at 4 kHz using a four-pole low-pass Bessel filter. Leak subtraction was performed by using a -P/4 protocol. Oocytes were placed in a measuring chamber filled with 200 μL ND96. The compounds were added directly to the measuring chamber under continuous application of the described voltage protocol. The percentage channel modulation was calculated when steady-state conditions were reached.
(§3) For the electrophysiological analysis of peptides, a number of protocols were applied from a holding potential of −90 mV. Currents for CaV3.1 and CaV3.2, which were carried by Ba^2+, were evoked by 300 ms depolarizing pulses to −25 mV or Vmax (the voltage corresponding to maximal Ba^2+ current in control conditions). Currents for CaV3.3, which were carried by Ba^2+, were evoked by 1 s depolarizing pulses to −25 mV or Vmax. The current–voltage relationships were determined by 600 ms step depolarizations between −90 and +60 mV, using 10 mV increments. The values of IPBa were normalized to the maximal Ba^2+ current amplitude and plotted as a function of voltage. To investigate the effect of the peptide toxins on the activation and steady-state inactivation, a standard 2-step protocol was used. In this protocol, 600 ms conditioning 10 mV step prepulses, ranging from −90 to +60 mV, were followed by a 400 ms test pulse to −25 mV. Data were normalized to the maximal Ba^2+ current amplitude, plotted against prepulse potential, and fitted by using the Boltzmann function: ICa/Imax = {(1 − C)/(1 + exp[(V − Vh)/k)]} + C, where Imax is the maximal IBa, Vh is the voltage corresponding to half-maximal inactivation, V is the test voltage, k is the slope factor, and C is a constant representing a non-inactivating persistent fraction (close to 0 in control). The concentration–response relationship was determined by fitting the data with the Hill equation: y = 100/{1 + [IC50/(toxin)]^h}, where y is the amplitude of the toxin-induced effect, IC50 is the toxin concentration at half-maximal efficacy, toxin is the toxin concentration, and h is the Hill coefficient.

KV11.1 (hERG) = KV11.1 (hERG) (Homo sapiens, UniProt Q12809); experiment: Selectivity screening, KV11.1 (hERG) in Xenopus oocytes; assay type: cell-based; conditions: human, Xenopus laevis oocytes expressing human KV11.1 (hERG), pH 7.5; 10 μM; means ± SEM (n ≥ 3); read-out: Percentage of inhibition of KV11.1
Experimental: (§4) As these purpurealidin analogs represent a new class of potent CaV3.1 inhibitors, they could potentially be used as pharmacological tools to investigate the role of CaV3 channels in various disease models. Therefore, compounds 74, 76, 79, and 99 were further evaluated at a concentration of 10 μM for their selectivity against cardiac voltage-gated potassium and sodium channels. […] Nevertheless, the affinity for the KV11.1 channel is an important issue for all four compounds (Table 2).
as §1
(§5) The selectivity screening was conducted with the following protocols: the elicited KV1.4, KV4.2, and KV11.1 currents were filtered at 0.5 kHz and sampled at 2 kHz; NaV1.5 currents were filtered at 2 kHz and sampled at 20 kHz using a four-pole low-pass Bessel filter. Leak subtraction was performed using a -P/4 protocol. The oocytes were measured in a bath solution composition of ND96 (in mM): NaCl, 96; KCl, 2; CaCl2, 1.8; MgCl2, 2; and HEPES, 5 (pH 7.5). For the electrophysiological analysis of the compounds, a number of protocols were applied from a holding potential of −90 mV. Currents for KV1.4 and KV4.2 were evoked by 0.5 s depolarizing pulses to 0 mV, followed by 0.5 s repolarizing pulses to −50 mV. Currents for KV11.1 were evoked by 2.5 s depolarizing prepulses to +40 mV, followed by hyperpolarizing pulses to −120 mV for 2.5 s. Currents for NaV1.5 were evoked by 100 ms depolarizing pulses to 0 mV.

rat CaV3.3 = rat CaV3.3 (Rattus norvegicus, UniProt Q9Z0Y8); experiment: Two-electrode voltage clamp on Xenopus oocytes expressing CaV3.3; assay type: cell-based; conditions: for Shift in the voltage dependency (activation/inactivation) of CaV3.3: 10 μM compound; for Hill coefficient on CaV3.3: concentration-response fit; for IC50: concentration-response, means ± SEM; for Reversibility of effect on CaV3.3 on wash-out: wash-in and wash-out
Experimental: as §1, §2, §3

human CaV3.2 = human CaV3.2 (Homo sapiens, UniProt O95180); experiment: Two-electrode voltage clamp on Xenopus oocytes expressing CaV3.2; assay type: cell-based; conditions: for Shift in the voltage dependency (activation/inactivation) of CaV3.2: 10 μM compound; for Hill coefficient on CaV3.2: concentration-response fit; for IC50: concentration-response, means ± SEM; for Reversibility of effect on CaV3.2 on wash-out: wash-in and wash-out
Experimental: as §1, §2, §3

rat CaV3.1 channel [2] = molecular target: T1, rat CaV3.1 channel; experiment: Two-electrode voltage clamp on Xenopus oocytes expressing CaV3.1; assay type: cell-based
human KV11.1 = human KV11.1 (Homo sapiens, UniProt Q12809); experiment: Selectivity screening, KV11.1 (hERG) in Xenopus oocytes; assay type: cell-based; conditions: comparison of own CaV3.1 and KV11.1 data
Experimental: as §4, §1, §5

hERG channels = conditions: reference not given; cited from earlier work

T1 sequence (O54898 whole entry): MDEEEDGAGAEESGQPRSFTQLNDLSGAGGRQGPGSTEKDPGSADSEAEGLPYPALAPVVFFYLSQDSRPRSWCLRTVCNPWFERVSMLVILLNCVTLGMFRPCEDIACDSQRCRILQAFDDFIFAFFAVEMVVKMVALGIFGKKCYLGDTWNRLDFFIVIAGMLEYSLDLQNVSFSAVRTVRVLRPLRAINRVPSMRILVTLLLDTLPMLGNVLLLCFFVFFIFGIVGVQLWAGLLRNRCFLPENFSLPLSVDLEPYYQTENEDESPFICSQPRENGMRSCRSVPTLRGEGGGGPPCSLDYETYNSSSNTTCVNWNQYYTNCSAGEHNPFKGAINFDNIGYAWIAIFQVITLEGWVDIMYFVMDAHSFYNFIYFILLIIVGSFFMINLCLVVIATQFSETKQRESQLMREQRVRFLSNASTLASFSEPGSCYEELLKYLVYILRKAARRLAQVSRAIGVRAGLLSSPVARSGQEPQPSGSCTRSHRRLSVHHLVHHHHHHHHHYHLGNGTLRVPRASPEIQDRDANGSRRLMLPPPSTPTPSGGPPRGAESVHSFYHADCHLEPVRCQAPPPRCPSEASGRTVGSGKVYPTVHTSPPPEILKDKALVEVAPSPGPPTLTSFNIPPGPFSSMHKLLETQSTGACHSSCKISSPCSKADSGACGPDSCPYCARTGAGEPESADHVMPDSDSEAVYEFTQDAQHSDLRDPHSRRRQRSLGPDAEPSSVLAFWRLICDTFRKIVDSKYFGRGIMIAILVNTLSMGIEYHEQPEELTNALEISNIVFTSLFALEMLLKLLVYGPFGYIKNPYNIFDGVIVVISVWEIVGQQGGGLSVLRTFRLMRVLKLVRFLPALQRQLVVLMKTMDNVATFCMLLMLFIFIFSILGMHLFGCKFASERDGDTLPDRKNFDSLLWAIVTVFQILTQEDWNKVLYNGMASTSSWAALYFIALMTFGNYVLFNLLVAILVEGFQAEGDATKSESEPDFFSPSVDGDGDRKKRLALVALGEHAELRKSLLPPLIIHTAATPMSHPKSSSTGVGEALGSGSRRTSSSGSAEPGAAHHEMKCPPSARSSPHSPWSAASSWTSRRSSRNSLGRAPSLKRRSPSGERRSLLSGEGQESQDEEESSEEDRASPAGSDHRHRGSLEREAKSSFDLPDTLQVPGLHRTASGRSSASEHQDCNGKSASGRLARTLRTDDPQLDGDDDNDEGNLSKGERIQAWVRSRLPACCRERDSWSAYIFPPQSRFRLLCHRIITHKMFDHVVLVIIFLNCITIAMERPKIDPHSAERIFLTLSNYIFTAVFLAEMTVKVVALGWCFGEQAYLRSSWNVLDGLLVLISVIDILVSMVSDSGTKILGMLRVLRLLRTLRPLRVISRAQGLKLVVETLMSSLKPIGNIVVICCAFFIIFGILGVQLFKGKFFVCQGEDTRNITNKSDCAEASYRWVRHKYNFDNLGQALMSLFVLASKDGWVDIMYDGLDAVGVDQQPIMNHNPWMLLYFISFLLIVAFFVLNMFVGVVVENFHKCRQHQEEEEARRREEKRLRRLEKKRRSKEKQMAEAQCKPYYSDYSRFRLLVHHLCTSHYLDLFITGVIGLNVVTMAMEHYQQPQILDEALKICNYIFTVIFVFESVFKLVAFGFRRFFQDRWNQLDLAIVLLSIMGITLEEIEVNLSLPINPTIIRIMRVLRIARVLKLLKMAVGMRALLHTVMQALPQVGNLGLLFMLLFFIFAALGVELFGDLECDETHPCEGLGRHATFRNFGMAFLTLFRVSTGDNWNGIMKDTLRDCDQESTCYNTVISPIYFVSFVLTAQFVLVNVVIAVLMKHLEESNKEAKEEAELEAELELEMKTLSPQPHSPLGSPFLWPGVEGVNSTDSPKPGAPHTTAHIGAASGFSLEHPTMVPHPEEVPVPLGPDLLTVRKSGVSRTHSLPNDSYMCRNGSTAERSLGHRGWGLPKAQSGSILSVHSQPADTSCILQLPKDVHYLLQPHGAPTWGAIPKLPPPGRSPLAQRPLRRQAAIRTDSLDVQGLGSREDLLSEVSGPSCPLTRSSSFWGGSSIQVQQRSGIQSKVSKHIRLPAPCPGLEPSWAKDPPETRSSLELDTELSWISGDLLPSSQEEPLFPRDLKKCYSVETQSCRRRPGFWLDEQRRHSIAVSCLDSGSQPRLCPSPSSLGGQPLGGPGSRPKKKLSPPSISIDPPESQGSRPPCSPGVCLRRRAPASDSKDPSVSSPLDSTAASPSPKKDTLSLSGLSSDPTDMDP
human CaV3.2, sequence (O95180 whole entry): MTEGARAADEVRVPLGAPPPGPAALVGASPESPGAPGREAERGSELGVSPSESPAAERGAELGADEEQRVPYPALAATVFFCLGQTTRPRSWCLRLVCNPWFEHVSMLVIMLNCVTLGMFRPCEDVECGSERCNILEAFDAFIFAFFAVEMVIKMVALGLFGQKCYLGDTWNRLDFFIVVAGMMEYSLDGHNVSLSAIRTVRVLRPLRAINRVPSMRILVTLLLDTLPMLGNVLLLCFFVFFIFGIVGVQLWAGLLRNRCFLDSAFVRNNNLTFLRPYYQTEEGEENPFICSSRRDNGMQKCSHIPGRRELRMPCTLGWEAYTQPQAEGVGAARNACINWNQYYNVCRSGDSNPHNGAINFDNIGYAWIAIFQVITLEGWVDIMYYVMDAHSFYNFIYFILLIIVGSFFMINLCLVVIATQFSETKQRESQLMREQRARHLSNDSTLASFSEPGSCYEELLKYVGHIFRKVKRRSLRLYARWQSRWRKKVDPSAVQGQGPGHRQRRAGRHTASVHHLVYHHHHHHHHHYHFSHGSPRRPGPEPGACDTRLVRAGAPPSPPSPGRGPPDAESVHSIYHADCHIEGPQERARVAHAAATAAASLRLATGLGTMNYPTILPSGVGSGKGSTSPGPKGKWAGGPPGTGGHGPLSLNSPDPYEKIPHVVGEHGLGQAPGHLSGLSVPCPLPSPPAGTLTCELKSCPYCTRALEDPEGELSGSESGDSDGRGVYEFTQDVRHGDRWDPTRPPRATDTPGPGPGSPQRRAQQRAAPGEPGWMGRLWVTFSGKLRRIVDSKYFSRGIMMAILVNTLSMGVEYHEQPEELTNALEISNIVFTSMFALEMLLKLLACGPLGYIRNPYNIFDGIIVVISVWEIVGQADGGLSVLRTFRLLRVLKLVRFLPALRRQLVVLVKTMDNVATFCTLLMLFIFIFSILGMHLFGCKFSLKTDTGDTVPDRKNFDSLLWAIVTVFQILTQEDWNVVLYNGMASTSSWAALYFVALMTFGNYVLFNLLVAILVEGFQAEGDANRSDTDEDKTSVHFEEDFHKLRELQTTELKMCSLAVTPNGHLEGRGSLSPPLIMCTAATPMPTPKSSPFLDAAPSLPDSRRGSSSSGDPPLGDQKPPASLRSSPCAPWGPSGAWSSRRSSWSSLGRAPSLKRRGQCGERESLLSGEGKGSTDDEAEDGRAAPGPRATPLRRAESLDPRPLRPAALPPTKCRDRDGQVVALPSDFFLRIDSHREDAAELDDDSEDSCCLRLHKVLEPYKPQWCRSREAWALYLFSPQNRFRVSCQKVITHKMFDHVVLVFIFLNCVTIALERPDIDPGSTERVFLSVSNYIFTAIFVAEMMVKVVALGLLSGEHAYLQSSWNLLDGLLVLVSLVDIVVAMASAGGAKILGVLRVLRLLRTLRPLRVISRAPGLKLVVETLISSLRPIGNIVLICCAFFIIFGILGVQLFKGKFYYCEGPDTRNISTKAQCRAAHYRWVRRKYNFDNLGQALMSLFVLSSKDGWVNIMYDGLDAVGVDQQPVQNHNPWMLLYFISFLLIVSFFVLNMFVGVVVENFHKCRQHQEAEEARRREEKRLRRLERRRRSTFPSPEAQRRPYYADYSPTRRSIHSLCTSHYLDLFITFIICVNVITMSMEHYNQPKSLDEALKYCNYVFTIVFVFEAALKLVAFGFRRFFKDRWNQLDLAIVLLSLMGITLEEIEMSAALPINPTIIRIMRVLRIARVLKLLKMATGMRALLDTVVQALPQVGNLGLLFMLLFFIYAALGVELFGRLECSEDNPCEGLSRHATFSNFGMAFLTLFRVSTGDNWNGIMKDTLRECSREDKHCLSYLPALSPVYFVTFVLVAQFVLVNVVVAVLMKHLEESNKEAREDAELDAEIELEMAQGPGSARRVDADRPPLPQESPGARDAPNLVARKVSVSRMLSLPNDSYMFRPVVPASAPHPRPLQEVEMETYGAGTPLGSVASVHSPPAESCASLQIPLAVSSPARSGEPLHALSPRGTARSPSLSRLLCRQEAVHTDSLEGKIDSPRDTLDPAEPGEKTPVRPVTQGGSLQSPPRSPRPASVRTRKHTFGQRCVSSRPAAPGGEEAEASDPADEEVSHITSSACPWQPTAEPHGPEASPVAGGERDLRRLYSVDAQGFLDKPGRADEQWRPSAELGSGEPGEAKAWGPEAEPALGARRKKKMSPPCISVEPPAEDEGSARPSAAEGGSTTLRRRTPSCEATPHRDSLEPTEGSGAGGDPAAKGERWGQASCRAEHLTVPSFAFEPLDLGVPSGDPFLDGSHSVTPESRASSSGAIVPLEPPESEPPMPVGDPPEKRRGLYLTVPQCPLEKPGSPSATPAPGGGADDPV

CNCCCOc1c(Br)cc(CCNC(=O)/C(Cc2cc(Br)c(OC)c(Br)c2)=N/O)cc1Br [Compound 1, purpurealidin I]
inhibition at 10 µM (rat CaV3.1 channel [1]): 70.5 ± 0.6%

O=C(NCc1cccnc1)C1=NOC2(C=C(Cl)C(=O)C(Cl)=C2)C1 [Compound 72]
inhibition at 10 µM (rat CaV3.1 channel [1]): 3.1 ± 1.1%

CN(C)CCCOc1ccc(Nc2ccc(C(F)(F)F)cc2[N+](=O)[O-])cc1 [Compound 74]
Shift in the voltage dependency (activation/inactivation) of CaV3.1 (rat CaV3.1 channel [1]): No significant shift | inhibition at 10 µM (rat CaV3.1 channel [1]): 43.4 ± 2.4% | IC50 (rat CaV3.1 channel [1]): 2.6 ± 0.6 µM | Hill coefficient on CaV3.1 (rat CaV3.1 channel [1]): 0.8 ± 0.1 | Reversibility of effect on CaV3.1 on wash-out (rat CaV3.1 channel [1]): reversible | inhibition at 10 µM (KV11.1 (hERG)): 45.8 ± 2.9% | Shift in the voltage dependency (activation/inactivation) of CaV3.3 (rat CaV3.3): No significant shift | Hill coefficient on CaV3.3 (rat CaV3.3): 0.5 ± 0.1 | IC50 (rat CaV3.3): 13.9 ± 5.1 µM | Reversibility of effect on CaV3.3 on wash-out (rat CaV3.3): reversible | Shift in the voltage dependency (activation/inactivation) of CaV3.2 (human CaV3.2): No significant shift | Hill coefficient on CaV3.2 (human CaV3.2): 0.8 ± 0.0 | IC50 (human CaV3.2): 3 ± 0.2 µM | Reversibility of effect on CaV3.2 on wash-out (human CaV3.2): reversible

CN(C)CC(O)COc1ccc(Nc2ccc(C(F)(F)F)cc2[N+](=O)[O-])cc1 (stereo not shown) [Compound 76]
Shift in the voltage dependency (activation/inactivation) of CaV3.1 (rat CaV3.1 channel [1]): No significant shift | inhibition at 10 µM (rat CaV3.1 channel [1]): 43 ± 4.5% | IC50 (rat CaV3.1 channel [1]): 3.7 ± 0.6 µM | Hill coefficient on CaV3.1 (rat CaV3.1 channel [1]): 0.9 ± 0.1 | Reversibility of effect on CaV3.1 on wash-out (rat CaV3.1 channel [1]): reversible | inhibition at 10 µM (KV11.1 (hERG)): 64.2 ± 3.2% | Shift in the voltage dependency (activation/inactivation) of CaV3.3 (rat CaV3.3): No significant shift | Hill coefficient on CaV3.3 (rat CaV3.3): 0.7 ± 0.1 | IC50 (rat CaV3.3): 18.2 ± 3.1 µM | Reversibility of effect on CaV3.3 on wash-out (rat CaV3.3): reversible | Shift in the voltage dependency (activation/inactivation) of CaV3.2 (human CaV3.2): No significant shift | Hill coefficient on CaV3.2 (human CaV3.2): 0.8 ± 0.1 | IC50 (human CaV3.2): 8.4 ± 3.6 µM | Reversibility of effect on CaV3.2 on wash-out (human CaV3.2): reversible

CN(C)CC(O)COc1ccc(Nc2ccc(C(F)(F)F)cc2)cc1 (stereo not shown) [Compound 79]
Shift in the voltage dependency (activation/inactivation) of CaV3.1 (rat CaV3.1 channel [1]): No significant shift | inhibition at 10 µM (rat CaV3.1 channel [1]): 60.4 ± 5.7% | IC50 (rat CaV3.1 channel [1]): 5.9 ± 1.9 µM | Hill coefficient on CaV3.1 (rat CaV3.1 channel [1]): 0.8 ± 0.1 | Reversibility of effect on CaV3.1 on wash-out (rat CaV3.1 channel [1]): reversible | inhibition at 10 µM (KV11.1 (hERG)): 67.6 ± 3.9% | Shift in the voltage dependency (activation/inactivation) of CaV3.3 (rat CaV3.3): No significant shift | Hill coefficient on CaV3.3 (rat CaV3.3): 0.7 ± 0.1 | IC50 (rat CaV3.3): 2.7 ± 0.3 µM | Reversibility of effect on CaV3.3 on wash-out (rat CaV3.3): reversible | Shift in the voltage dependency (activation/inactivation) of CaV3.2 (human CaV3.2): No significant shift | Hill coefficient on CaV3.2 (human CaV3.2): 1.0 ± 0.0 | IC50 (human CaV3.2): 7 ± 0.1 µM | Reversibility of effect on CaV3.2 on wash-out (human CaV3.2): reversible

CN(C)CC(O)COc1ccc(Oc2ccc(C(F)(F)F)cc2[N+](=O)[O-])cc1 (stereo not shown) [Compound 99]
Shift in the voltage dependency (activation/inactivation) of CaV3.1 (rat CaV3.1 channel [2]; 5 μM compound): no significant shift | inhibition at 5 µM (rat CaV3.1 channel [2]; 5 μM compound, read-out: Inhibition of CaV3.1 currents): 57 ± 5.8% | Reversibility of effect on CaV3.1 on wash-out (rat CaV3.1 channel [2]; 5 μM compound, wash-out with compound-free bath solution): not completely reversible | Midpoint of activation V1/2 (rat CaV3.1 channel [2]; in the presence of 5 μM compound, control −39.9 ± 0.1 mV): −37.4 ± 0.1 mV | Inactivation curve V1/2 (rat CaV3.1 channel [2]; in the presence of 5 μM compound, control −56.0 ± 0.1 mV): −53.0 ± 0.2 mV | inhibition at 10 µM (rat CaV3.1 channel [1]): 90.7 ± 5.4% | IC50 (rat CaV3.1 channel [1]): ~3 µM and 4.1 µM | Hill coefficient on CaV3.1 (rat CaV3.1 channel [1]): 1.6 ± 0.1 | inhibition at 10 µM (KV11.1 (hERG)): 69.1 ± 1.9% | Potency across CaV3.1 and hERG channels (human KV11.1): equipotent | Hill coefficient on CaV3.2 (human CaV3.2): 1.4 ± 0.3 | IC50 (human CaV3.2): 2.3 ± 0.5 µM

CC(C)(C)NC(=O)CN1CCC(CNC(=O)c2cc(F)cc(Cl)c2)CC1 [Compound Z944]
IC50 (hERG channels): 7.8 µM | Potency against CaV3.1 compared to hERG channels (hERG channels): 150 fold
